Source: US20200239530A1, “COMPOUNDS AND METHODS OF MODULATING PROTEIN DEGRADATION” (Vividion Therapeutics, Inc., priority 2017, published 2020)

Columns and labels:
[1] = biological target: T1, KDSR 3-ketodihydrosphingosine reductase (Homo sapiens, UniProt Q06136); assay: Cysteine liganding, probe competition; type: binding
T1 construct: Cells were resuspended in cold PBS on ice and sonicated with a probe sonicator to achieve lysis; endogenous in cells
T1 sequence (Q06136 26-332): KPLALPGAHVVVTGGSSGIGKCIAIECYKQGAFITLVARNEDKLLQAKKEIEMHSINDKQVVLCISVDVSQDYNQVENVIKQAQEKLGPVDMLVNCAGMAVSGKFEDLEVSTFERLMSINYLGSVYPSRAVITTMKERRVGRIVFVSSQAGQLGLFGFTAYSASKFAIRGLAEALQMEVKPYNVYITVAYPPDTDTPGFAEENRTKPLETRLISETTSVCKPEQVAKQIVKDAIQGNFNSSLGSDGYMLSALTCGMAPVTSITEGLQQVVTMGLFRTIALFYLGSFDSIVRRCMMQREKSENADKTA
Summary of the method: (§1)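 Probe competition in native proteome: 5 mg/ml lysate, compound 1 hr 25° C, then desthiobiotin iodoacetamide (10 mM stock) 1 hr 25° C; acetone ppt, urea/DTT reduction, iodoacetamide alkylation, trypsin, streptavidin pull-down.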

SNX8 Sorting nexin-8 = biological target: T2, SNX8 Sorting nexin-8 (Homo sapiens, UniProt Q9Y5X2); assay: Cysteine liganding, probe competition; type: binding
T2 construct: Cells were resuspended in cold PBS on ice and sonicated with a probe sonicator to achieve lysis; endogenous in cells
T2 sequence (Q9Y5X2 1-465): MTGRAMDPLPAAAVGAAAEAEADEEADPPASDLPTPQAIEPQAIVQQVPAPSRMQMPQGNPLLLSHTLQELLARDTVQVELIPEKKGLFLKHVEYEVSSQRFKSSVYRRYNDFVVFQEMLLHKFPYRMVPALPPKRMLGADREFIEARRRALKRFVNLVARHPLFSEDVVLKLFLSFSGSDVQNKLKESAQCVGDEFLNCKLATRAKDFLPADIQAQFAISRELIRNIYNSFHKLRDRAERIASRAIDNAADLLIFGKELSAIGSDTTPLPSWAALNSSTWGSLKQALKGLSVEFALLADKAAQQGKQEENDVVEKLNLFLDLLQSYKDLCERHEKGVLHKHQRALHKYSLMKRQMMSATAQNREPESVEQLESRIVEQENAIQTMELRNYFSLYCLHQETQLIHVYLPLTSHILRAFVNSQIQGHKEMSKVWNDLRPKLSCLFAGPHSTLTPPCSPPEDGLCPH
Summary of the method: as §1

SMILES | Liganded ([1]; KDSR Res# 121, uniprot Q06136) | Liganded (SNX8 Sorting nexin-8; SNX8 Res# 200, uniprot Q9Y5X2) | 100 ave ([1]; uniprot Q06136) | 100 Max ([1]; uniprot Q06136, in % (unit assumed)) | 100 Max (SNX8 Sorting nexin-8; uniprot Q9Y5X2) | 100 ave (SNX8 Sorting nexin-8; uniprot Q9Y5X2)
COc1ccc2c(c1)CCCN2C(=O)CCl [KB02] | YES | YES |  |  |  | 
O=C(CCl)Nc1cc(C(F)(F)F)cc(C(F)(F)F)c1 [KBO3] |  |  | −22.72 | −22.72 | 36.21 | 36.21
